According to ChEMBL document CHEMBL5244260, “Aldose reductase and protein tyrosine phosphatase 1B inhibitors as a promising therapeutic approach for diabetes mellitus” (Eur J Med Chem, 2020):
Each block holds one compound with its values, some of them ahead of it.

Legend:
[1] = target: Aldo-keto reductase family 1 member B1 (Sus scrofa, UniProt P80276); test: Inhibition of ALR2 in pig lens using D,L-glyceraldehyde as substrate preincubated for 4 mins in presence of NADPH followed by substrate addition and measured after 4 mins by spectrophotometric assay; format: tissue-based
[2] = target: T1, Tyrosine-protein phosphatase non-receptor type 1 (Homo sapiens, UniProt P18031); test: Inhibition of human PTP1B (1 to 298 residues) expressed in Escherichia coli using FDP as substrate by microplate reader
T1 sequence (P18031 whole entry): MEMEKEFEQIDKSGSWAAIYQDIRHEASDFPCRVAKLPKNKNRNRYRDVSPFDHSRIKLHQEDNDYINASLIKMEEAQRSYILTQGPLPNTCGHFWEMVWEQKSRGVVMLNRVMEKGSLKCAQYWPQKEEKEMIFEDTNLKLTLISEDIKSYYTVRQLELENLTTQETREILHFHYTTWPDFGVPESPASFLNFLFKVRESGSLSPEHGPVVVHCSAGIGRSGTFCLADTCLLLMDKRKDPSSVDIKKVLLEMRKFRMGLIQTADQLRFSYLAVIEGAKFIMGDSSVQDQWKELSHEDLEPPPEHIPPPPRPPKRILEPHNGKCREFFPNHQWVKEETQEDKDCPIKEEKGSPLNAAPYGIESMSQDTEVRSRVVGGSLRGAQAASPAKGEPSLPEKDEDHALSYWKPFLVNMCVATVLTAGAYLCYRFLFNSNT

[3] = target: T2, Aldo-keto reductase family 1 member B1 (Rattus norvegicus, UniProt P07943); test: Inhibition of recombinant Aldose reductase in rat lens using D,L-glyceraldehyde as substrate in presence of NADPH measured after 4 mins by spectrophotometric assay; format: tissue-based
[4] = target: T1, Tyrosine-protein phosphatase non-receptor type 1; test: Inhibition of human PTP1B (1 to 321 residues) expressed in Escherichia coli using FDP as substrate
[5] = target: T3, Receptor-type tyrosine-protein phosphatase C (Homo sapiens, UniProt P08575); test: Inhibition of human CD45 (564 to […] residues) expressed in Escherichia coli using FDP as substrate incubated for 10 min
T3 sequence (P08575 whole entry): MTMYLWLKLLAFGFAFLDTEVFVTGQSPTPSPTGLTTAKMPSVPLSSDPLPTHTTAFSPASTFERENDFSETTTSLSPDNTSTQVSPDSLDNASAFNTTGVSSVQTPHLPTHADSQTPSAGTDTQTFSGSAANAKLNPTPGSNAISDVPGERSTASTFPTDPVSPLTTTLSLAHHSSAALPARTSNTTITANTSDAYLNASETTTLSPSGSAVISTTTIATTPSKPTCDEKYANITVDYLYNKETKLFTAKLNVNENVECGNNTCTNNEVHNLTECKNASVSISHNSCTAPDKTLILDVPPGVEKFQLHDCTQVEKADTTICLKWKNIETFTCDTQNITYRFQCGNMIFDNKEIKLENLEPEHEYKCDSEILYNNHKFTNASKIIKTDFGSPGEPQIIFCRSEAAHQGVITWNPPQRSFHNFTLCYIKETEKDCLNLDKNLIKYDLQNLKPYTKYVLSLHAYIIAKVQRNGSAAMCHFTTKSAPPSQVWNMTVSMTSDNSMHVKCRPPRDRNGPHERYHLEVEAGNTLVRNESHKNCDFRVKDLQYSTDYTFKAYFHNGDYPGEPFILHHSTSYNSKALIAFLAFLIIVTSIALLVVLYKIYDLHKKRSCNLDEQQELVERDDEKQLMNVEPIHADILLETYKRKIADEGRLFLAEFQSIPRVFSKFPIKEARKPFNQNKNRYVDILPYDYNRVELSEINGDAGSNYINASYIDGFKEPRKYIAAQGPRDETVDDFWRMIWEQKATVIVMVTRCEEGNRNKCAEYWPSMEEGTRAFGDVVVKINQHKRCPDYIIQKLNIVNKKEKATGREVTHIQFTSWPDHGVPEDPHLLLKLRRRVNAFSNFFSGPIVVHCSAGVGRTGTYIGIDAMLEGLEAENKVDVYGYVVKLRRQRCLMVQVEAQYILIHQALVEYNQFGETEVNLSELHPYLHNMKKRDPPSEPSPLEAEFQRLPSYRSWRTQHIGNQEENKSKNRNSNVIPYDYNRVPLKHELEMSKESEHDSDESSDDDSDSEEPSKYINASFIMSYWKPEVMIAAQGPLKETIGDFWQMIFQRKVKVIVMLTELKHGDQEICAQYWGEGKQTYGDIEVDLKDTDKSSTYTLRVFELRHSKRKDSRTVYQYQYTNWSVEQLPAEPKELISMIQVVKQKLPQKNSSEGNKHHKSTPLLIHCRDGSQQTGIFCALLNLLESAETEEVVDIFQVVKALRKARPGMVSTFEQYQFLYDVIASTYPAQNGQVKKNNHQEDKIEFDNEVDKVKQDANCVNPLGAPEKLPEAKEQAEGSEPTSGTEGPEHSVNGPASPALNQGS

[6] = Inhibition of human recombinant ALR1 expressed in Escherichia coli by Coomassie reagent assay
[7] = target: Aldo-keto reductase family 1 member B1 (Homo sapiens, UniProt P15121); test: Inhibition of ALR2 (unknown origin)
[8] = target: T2, Aldo-keto reductase family 1 member B1; test: Inhibition of ALR in Fischer-344 rat lens using D,L-glyceraldehyde as substrate in presence of NADPH measured after 3 mins by spectrophotometric assay; format: tissue-based
[9] = Inhibition of ALR2 in Sprague-Dawley rat lens using D,L-glyceraldehyde as substrate preincubated for 10 mins in presence of NADPH followed by substrate addition and measured after 5 mins by spectrophotometric assay; format: tissue-based
[10] = Inhibition of ALR2 in rat lens using D,L-glyceraldehyde as substrate in presence of NADPH; format: tissue-based
[11] = Inhibition of ALR2 in Wistar rat lens using D,L-glyceraldehyde as substrate preincubated for 10 mins in presence of NADPH followed by substrate addition and measured after 5 mins by spectrophotometric assay; format: tissue-based
[12] = target: T1, Tyrosine-protein phosphatase non-receptor type 1; test: Inhibition of human PTP1B (1 to 411 residues) expressed in Escherichia coli BL21 (DE3) using GNGDpYMPMSPKS as phosphopeptide substrate incubated for 30 mins by malachite green reagent assay
[13] = organism: Homo sapiens; test: Selectivity ratio of Ki for PTP1B (unknown origin) to Ki for TCPTP (unknown origin)
[14] = target: T1, Tyrosine-protein phosphatase non-receptor type 1; test: Inhibition of PTP1B (unknown origin) assessed as inhibition constant

IC50 [1]: 7600 nM
SMILES: O=C(O)CCCCCN1N=C2c3ccsc3CCC2CC1=O (stereo not drawn)

IC50 [2]: 16 nM
SMILES: O=P(O)(O)C(F)(F)c1ccc(C[C@@](c2ccccc2)(c2ccc(C(F)(F)P(=O)(O)O)cc2)n2nnc3ccccc32)cc1

IC50 [3]: 3000 nM
SMILES: O=C1CC2(C(=O)N1)c1ccc(O)cc1C=Cc1cc(O)ccc12

IC50 [4]: 6 nM
IC50 [5]: > 50000 nM
SMILES: O=C(c1ccccc1)C(Cc1ccc(C(F)(F)P(=O)(O)O)cc1)(Cc1ccc(C(F)(F)P(=O)(O)O)cc1)c1ccccc1

IC50 [6]: 33000 nM
SMILES: O=C(O)COc1cc(F)ccc1C(=S)NCc1ccc(Br)cc1F

IC50 [7]: 60 nM
SMILES: Cc1cccc(-c2nn(-c3ccccc3)cc2/C=C2\SC(=S)N(c3ccc(C(=O)NCC(=O)O)cc3)C2=O)c1

IC50 [8]: 49 nM
SMILES: O=C(O)Cn1ccc(-c2nc3ccccc3s2)c1

IC50 [9]: 360 nM
SMILES: O=C(O)Cn1c2ccccc2n2c(=O)c(=O)n(Cc3ccccc3)nc12

IC50 [4]: 6 nM
IC50 [5]: > 50000 nM
SMILES: CC(C)OC(=O)c1cc(CC(Cc2ccc(C(F)(F)P(=O)(O)O)cc2)(C(=O)c2ccccc2)c2ccccc2)ccc1C(F)(F)P(=O)(O)O (stereo not drawn)

IC50 [10]: 50 nM
SMILES: O=C1C(=O)N(C2(C(=O)O)CCCCC2)C(=O)N1Cc1ccc(Cl)cc1Cl

IC50 [3]: 3400 nM
SMILES: COc1ccc2c(c1)C=Cc1cc(OC)ccc1C2/C=C1\SC(=O)NC1=O

IC50 [11]: 126 nM
SMILES: O=C(O)CC1=CN(/C=C/c2ccc(O)c(O)c2)S(=O)(=O)c2ccccc21

IC50 [12]: 80 nM
SMILES: COc1ccc2cc(O)c(N3CC(=O)NS3(=O)=O)cc2c1

Ratio Ki [13]: 20
Ki [14]: 920 nM
SMILES: COC(=O)c1c(O)cccc1OC/C=C/c1cccc(-c2onc(C(=O)O)c2CO)c1

Ratio Ki [13]: 20
Ki [14]: 2100 nM
SMILES: COC(=O)c1c(O)cccc1OC/C=C/c1cccc(-c2onc(C(=O)O)c2N)c1

IC50 [7]: 520 nM
SMILES: C/C(=N\NC(=S)Nc1cccc(Br)c1)c1ccc2c(c1)NC(=O)CO2

IC50 [12]: 80 nM
SMILES: O=C1CN(c2ccc(-c3ccc[nH]3)cc2O)S(=O)(=O)N1

IC50 [12]: 80 nM
SMILES: CS(=O)(=O)Oc1c(Cl)cccc1Cc1ccc(N2CC(=O)NS2(=O)=O)c(O)c1

IC50 [9]: 107 nM
SMILES: O=c1c(/C=C/c2ccc(O)cc2)nc2ccc(F)cc2n1-c1cnn(O)c1
